Data published in patent publication US7799805B2, “Piperidine carboxylic acid amide derivatives” (Actelion Pharmaceuticals Ltd., priority 2005, dated 2010).

Biological target: T1, recombinant human renin (Homo sapiens, UniProt P00797)
T1 sequence (P00797 67-406): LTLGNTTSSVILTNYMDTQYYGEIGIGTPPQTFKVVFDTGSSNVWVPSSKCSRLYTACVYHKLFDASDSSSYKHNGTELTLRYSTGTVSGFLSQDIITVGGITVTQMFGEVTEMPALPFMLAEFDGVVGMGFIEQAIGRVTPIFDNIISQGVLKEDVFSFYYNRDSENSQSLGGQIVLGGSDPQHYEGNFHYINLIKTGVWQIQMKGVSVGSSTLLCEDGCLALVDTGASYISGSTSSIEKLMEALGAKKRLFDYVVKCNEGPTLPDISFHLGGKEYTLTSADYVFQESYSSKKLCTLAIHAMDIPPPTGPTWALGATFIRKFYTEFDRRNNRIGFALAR
Test: Primary renin inhibition assay: IC50 in buffer, 384 well MTP (AngI quantified by EIA)
Experimental: Enzyme Immuno Assay (EIA) to Estimate AngI Accumulation and Renin Inhibition
96 well MTP (MaxiSorp™, Nunc) were coated with 200 μl conjugate and blocked with 250 μl blocking solution as above, except that the blocking solution contained 3% BSA.
1.3 AngI-EIA in 384 well MTP
The AngI (1-10)/BSA coated MTP were washed 3 times with wash buffer (PBS 1×, 0.01% Tween 20) and filled with 75 μl of primary antibody solution (anti-AngI antiserum, pre-diluted 1:10 in horse serum), diluted to a final concentration of 1:100,000 in assay buffer (PBS 1×, 1 mM EDTA, 0.1% BSA, pH 7.4). 5 μl of the renin reaction (or standards in assay buffer) (see below) were added to the primary antibody solution and the plates were incubated overnight at 4° C. After the incubation the plates were washed 3 times with wash buffer and incubated with secondary antibody [anti-rabbit IgG, linked to horseradish peroxidase (Amersham Bioscience, NA 934V), diluted 1:2,000 in wash buffer] for 2 h at rt. […]
In the second step, the accumulated AngI is measured by an immunological assay (enzyme immuno assay, EIA). […]
Test compounds were dissolved and diluted in 100% DMSO and 2.5 μl added to the premix, then incubated at 37° C. for 3 h. At the end of the incubation period, 5 μl of the renin reaction (or standards in assay buffer) were transferred into EIA assays (as described above) and AngI produced by renin was quantified.

Row | SMILES | IC50 [pM]
1 | O=C([C@H]1[C@H]2CNC[C@@H](C[C@H]1c1ccc(CCCOc3c(F)ccc(F)c3Cl)cc1)N2)N(Cc1cccc(Cl)c1Cl)C1CC1 (racemic) [Example 1, (rac.)-(1R*,5S*,6R*,7R*)-7-{4-[3-(2-Chloro-3,6-difluoro-phenoxy)-propyl]-phenyl}-3,9-diaza-bicyclo[3.3.1]nonane-6-carboxylic acid cyclopropyl-(2,3-dichloro-benzyl)-amide] | 650
2 | O=C([C@@H]1[C@@H](c2ccc(CCCOc3c(F)ccc(F)c3Cl)cc2)C[C@@H]2CNC[C@H]1N2)N(Cc1cccc(Cl)c1Cl)C1CC1 (racemic) [Example 2, (rac.)-(1R*,5S*,6R*,7S*)-7-{4-[3-(2-Chloro-3,6-difluoro-phenoxy)-propyl]-phenyl}-3,9-diaza-bicyclo[3.3.1]nonane-6-carboxylic acid cyclopropyl-(2,3-dichloro-benzyl)-amide] | 190
